Results published in PubChem BioAssay (NCI).
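Five compound concentrations were applied to cells in 96-well plates for 48 hours; endpoints were derived by simple linear interpolation of the resulting dose-response curve. At the GI50, growth is halved. TGI: total growth inhibition.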

Tests used:
Test in all cases: inhibition of tumour cell growth, NCI panel, 48 h
SK-MEL-2 melanoma = tested on: SK-MEL-2 melanoma
KM20L2 colon = tested on: KM20L2 colon
SK-MEL-5 melanoma = tested on: SK-MEL-5 melanoma
CCRF-CEM leukemia = tested on: CCRF-CEM leukemia
HOP-92 NSCLC = tested on: HOP-92 NSCLC
SNB-19 CNS = tested on: SNB-19 CNS
COLO 205 colon = tested on: COLO 205 colon
DMS 114 small cell lung = tested on: DMS 114 small cell lung
NCI-H226 lung = tested on: NCI-H226 lung
HCT-15 colon = tested on: HCT-15 colon
LOX IMVI melanoma = tested on: LOX IMVI melanoma

| SMILES | TGI (SK-MEL-2 melanoma) [µM] | TGI (KM20L2 colon) [µM] | TGI (SK-MEL-5 melanoma) [µM] | TGI (CCRF-CEM leukemia) [µM] | TGI (HOP-92 NSCLC) [µM] | TGI (SNB-19 CNS) [µM] | TGI (COLO 205 colon) [µM] | TGI (DMS 114 small cell lung) [µM] | TGI (NCI-H226 lung) [µM] | TGI (HCT-15 colon) [µM] | GI50 (SK-MEL-2 melanoma) [µM] | GI50 (SK-MEL-5 melanoma) [µM] | GI50 (CCRF-CEM leukemia) [µM] | GI50 (HOP-92 NSCLC) [µM] | GI50 (LOX IMVI melanoma) [µM] | TGI (LOX IMVI melanoma) [µM] | GI50 (NCI-H226 lung) [µM] | GI50 (SNB-19 CNS) [µM] | GI50 (COLO 205 colon) [µM] | GI50 (HCT-15 colon) [µM] |
| --- | --- | --- | --- | --- | --- | --- | --- | --- | --- | --- | --- | --- | --- | --- | --- | --- | --- | --- | --- | --- |
| O=C1CSC(C(N=Nc2ccc(Cl)cc2)c2nc3ccccc3[nH]2)=N1 (stereo not given) | 41.8 | > 100 | 88.4 | > 100 | > 100 | > 100 | > 100 | 58.5 | 52 | > 100 | – | – | – | – | – | – | – | – | – | – |
| CCc1c(C)c2ccc(OCC(=O)N=Nc3c(O)[nH]c4ccccc34)c(C)c2oc1=O | > 33.3 | – | > 33.3 | > 33.3 | 1.56 | – | – | – | > 33.3 | – | > 33.3 | 1.06 | 1.34 | 0.69 | 0.832 | > 7.31 | > 33.3 | – | – | – |
| Cc1c(N=NN(C)C)cc[n+]([O-])c1C | > 100 | > 100 | > 100 | > 100 | > 100 | > 100 | > 100 | > 100 | > 100 | > 100 | – | – | – | – | – | > 100 | – | – | – | – |
| CC(C)[C@](O)(C(=O)OCC1=CCN2CC[C@@H](O)[C@@H]12)[C@H](C)O | > 375 | > 375 | > 80.8 | > 375 | > 375 | > 375 | > 375 | > 375 | > 375 | > 375 | – | – | – | – | – | > 174 | – | – | – | – |
| COC(=O)C1C(O)C(C)C(O)OC1C(C)C(O)C(C)/C=C\C=C(/C)C(=O)Nc1c(C)c(OC(C)=O)c2c(c1O)C(=O)C(C)=C1OCOC(/C(C)=C/C(C)=O)=C12 (stereo not given) | 20.9 | 24.4 | 23.5 | 34.4 | 22.3 | 30.9 | 20.6 | 27.5 | 23.4 | 29 | – | – | – | – | – | 26.6 | – | – | – | – |
| Cn1c(=O)c2nc(NCCO)cnc2n(C)c1=O | > 100 | > 100 | > 100 | > 100 | > 100 | > 100 | > 100 | > 100 | – | > 100 | – | – | – | – | – | – | – | – | – | – |
| O=C(c1ccccc1)c1nn(-c2ccccc2)c2nc3nc(-c4ccccc4)cc(=O)n3nc12 | 65.6 | – | 27.1 | – | 78.3 | > 100 | 64.1 | – | > 100 | > 100 | 23.8 | 13.6 | – | 24.6 | 25.8 | 78.7 | 47.4 | 42.7 | 26.8 | 36.3 |
| Cc1cc2c(C(C)C)c(O)c(O)c(C=Nc3ccccc3)c2c(O)c1-c1c(C)cc2c(C(C)C)c(O)c(O)c(C=Nc3ccccc3)c2c1O | > 100 | > 100 | – | > 100 | > 100 | > 100 | > 100 | > 100 | > 100 | > 100 | – | – | – | – | – | > 100 | – | – | – | – |
